In US12595289B2, “Therapeutic agent for breast cancer comprising BIG3-PHB2 interaction-inhibiting peptide derived from PHB2” (TOKUSHIMA UNIVERSITY, priority 2018, dated 2026):

Experiments:
[1] = test system: Normal mammary gland epithelial cell line MCF-10A; assay: Growth assay on normal mammary gland epithelial cells MCF-10A; assay type: cell-based; settings: MCF-10A, 10 μM each peptide, 24 hours
Method: (§1) Growth assay on MCF-7 was carried out by seeding cells into 48-well plates (2×10^4 cells/200 μL). First, on the next day after seeding, the medium was changed to phenol red-free DMEM/F12 (Thermo Fisher Scientific) supplemented with 10% FBS, 1% Antibiotic/Antimycotic solution, 0.1 mM NEAA, 1 mM sodium pyruvate, and 10 μg/mL insulin. 24 hours later, the cells were treated with 10 nM 17β-estradiol (estrogen, Sigma) alone or with 10 nM estrogen and a PHB2 sequence-derived peptide. Growth assay on MCF-10A was carried out by seeding cells into 48-well plates (2×10^4 cells/200 μL). 24 hours after seeding, PHB2 sequence-derived peptide was added. Growth assays were carried out using the Cell Counting Kit-8 (CCK-8) (Dojindo, Kumamoto, Japan). The data are shown by mean±standard deviation of three independent experiments.

[2] = test system: PHB2 (Ser39) phosphorylation; assay: Ser39 phosphorylation of PHB2 in MCF-7 by Western blotting; assay type: cell-based, Human; settings: MCF-7, 10 μM each peptide, 10 nM estrogen, 24 hours (FIG. 2C)
Method: (§2) For immunoblot analyses, after performing SDS-PAGE, the membranes blotted with proteins were blocked with 4% BlockAce solution (Dainippon Pharmaceutical, Osaka, Japan) for 3 hours and then incubated to react for 12 hours with antibodies against BIG3 (1:1,000), PHB2 (1:1,000) (Abcam, Cambridge, UK) and phosphorylated PHB2 (Ser39, Scrum, Tokyo, Japan). After allowing interaction with HRP-labeled secondary antibodies (anti-rat IgG-HRP for BIG3, 1:5,000; and anti-rabbit IgG-HRP for PHB2 and phosphorylated PHB2, 1:1,000) (Santa Cruz Biotechnology, Dallas, TX, USA) for 1 hour, the blots were developed with the Enhanced Chemiluminescence (ECL) system (GE Healthcare, Buckinghamshire, UK) and scanned using the Image Reader LAS-3000 mini (Fujifilm, Tokyo, Japan).

[3] = test system: Human breast cancer cell line MCF-7; assay: Estrogen (E2)-dependent growth assay on MCF-7; assay type: cell-based; settings: MCF-7, 10 μM peptide alone, 10 nM estrogen, after 96 hours
[4] = test system: Human breast cancer cell line MDA-MB-231; settings: 96 h
Method: MDA-MB-231 cells were seeded into 48-well plates at a cell density of 1×10^4 cells/200 μL in well. […] Data were obtained from three independent experiments, a graph (mean±standard deviation) was produced using a graphing and data analyzing software SigmaPlot (Systat Software, San Jose, CA, USA), and the 50% inhibition concentration (IC50) of the peptide against cell growth was calculated.

[5] = test system: Human breast cancer cell line MCF-7; assay: Estrogen (E2)-dependent growth assay on MCF-7; assay type: cell-based; settings: MCF-7, 10 μM each peptide, 10 nM estrogen, 24 hours
Method: as §1
PHB2 peptides 11-21aa and 76-88aa were cross-linked by three types of cross-linking methods (FIG. 10A: hexafluorobenzene cross-linking, decafluorobiphenyl cross-linking, and disulfide cross-linking) to prepare cross-linked PHB2 peptides (stapled PHB2 peptides) (FIG. 10B), and the suppressive effects of these peptides on estrogen-dependent growth were examined. In the experiment, breast cancer cells MCF-7 were seeded, 10 μM each PHB2 peptide and 10 nM estrogen were added after 48 hours, and the cell number was evaluated after another 24 hours by MTT assay.

[6] = test system: Human breast cancer cell line MDA-MB-231; assay: Combination assay on MDA-MB-231; assay type: cell-based; settings: MDA-MB-231, each peptide at respective IC50, 96 hours
Method: MDA-MB-231 cells were seeded into 48-well plates at a cell density of 1×10^4 cells/200 μL in well. 48 hours later, the medium in each well was exchanged to media supplemented with PHB2 peptide 11-22aa (added concentration: IC50 value), PHB2 peptide 76-90aa (added concentration: IC50 value) and a mixed solution of both peptides (added concentration: respective IC50 value), respectively, or to a medium supplemented with phosphate buffered saline (PBS) as a negative control. After culture for another 96 hours, the cell growth level was measured using the Cell Counting Kit-8 (Dojindo, Kumamoto, Japan). The data obtained was used to calculate relative values based on the growth level when PBS was added, and the graph was produced.

[7] = biological target: T1, interaction between BIG3 and PHB2 (Homo sapiens, UniProt Q5TH69); assay: Inhibition of BIG3-PHB2 binding in MCF-7, immunoprecipitation with anti-BIG3 antibody and Western blotting; assay type: cell-based; settings: MCF-7 (FIG. 3B)
T1 construct: endogenous in cells; host or cells: MCF-7 (human breast cancer cell line)
T1 sequence (Q5TH69 whole entry): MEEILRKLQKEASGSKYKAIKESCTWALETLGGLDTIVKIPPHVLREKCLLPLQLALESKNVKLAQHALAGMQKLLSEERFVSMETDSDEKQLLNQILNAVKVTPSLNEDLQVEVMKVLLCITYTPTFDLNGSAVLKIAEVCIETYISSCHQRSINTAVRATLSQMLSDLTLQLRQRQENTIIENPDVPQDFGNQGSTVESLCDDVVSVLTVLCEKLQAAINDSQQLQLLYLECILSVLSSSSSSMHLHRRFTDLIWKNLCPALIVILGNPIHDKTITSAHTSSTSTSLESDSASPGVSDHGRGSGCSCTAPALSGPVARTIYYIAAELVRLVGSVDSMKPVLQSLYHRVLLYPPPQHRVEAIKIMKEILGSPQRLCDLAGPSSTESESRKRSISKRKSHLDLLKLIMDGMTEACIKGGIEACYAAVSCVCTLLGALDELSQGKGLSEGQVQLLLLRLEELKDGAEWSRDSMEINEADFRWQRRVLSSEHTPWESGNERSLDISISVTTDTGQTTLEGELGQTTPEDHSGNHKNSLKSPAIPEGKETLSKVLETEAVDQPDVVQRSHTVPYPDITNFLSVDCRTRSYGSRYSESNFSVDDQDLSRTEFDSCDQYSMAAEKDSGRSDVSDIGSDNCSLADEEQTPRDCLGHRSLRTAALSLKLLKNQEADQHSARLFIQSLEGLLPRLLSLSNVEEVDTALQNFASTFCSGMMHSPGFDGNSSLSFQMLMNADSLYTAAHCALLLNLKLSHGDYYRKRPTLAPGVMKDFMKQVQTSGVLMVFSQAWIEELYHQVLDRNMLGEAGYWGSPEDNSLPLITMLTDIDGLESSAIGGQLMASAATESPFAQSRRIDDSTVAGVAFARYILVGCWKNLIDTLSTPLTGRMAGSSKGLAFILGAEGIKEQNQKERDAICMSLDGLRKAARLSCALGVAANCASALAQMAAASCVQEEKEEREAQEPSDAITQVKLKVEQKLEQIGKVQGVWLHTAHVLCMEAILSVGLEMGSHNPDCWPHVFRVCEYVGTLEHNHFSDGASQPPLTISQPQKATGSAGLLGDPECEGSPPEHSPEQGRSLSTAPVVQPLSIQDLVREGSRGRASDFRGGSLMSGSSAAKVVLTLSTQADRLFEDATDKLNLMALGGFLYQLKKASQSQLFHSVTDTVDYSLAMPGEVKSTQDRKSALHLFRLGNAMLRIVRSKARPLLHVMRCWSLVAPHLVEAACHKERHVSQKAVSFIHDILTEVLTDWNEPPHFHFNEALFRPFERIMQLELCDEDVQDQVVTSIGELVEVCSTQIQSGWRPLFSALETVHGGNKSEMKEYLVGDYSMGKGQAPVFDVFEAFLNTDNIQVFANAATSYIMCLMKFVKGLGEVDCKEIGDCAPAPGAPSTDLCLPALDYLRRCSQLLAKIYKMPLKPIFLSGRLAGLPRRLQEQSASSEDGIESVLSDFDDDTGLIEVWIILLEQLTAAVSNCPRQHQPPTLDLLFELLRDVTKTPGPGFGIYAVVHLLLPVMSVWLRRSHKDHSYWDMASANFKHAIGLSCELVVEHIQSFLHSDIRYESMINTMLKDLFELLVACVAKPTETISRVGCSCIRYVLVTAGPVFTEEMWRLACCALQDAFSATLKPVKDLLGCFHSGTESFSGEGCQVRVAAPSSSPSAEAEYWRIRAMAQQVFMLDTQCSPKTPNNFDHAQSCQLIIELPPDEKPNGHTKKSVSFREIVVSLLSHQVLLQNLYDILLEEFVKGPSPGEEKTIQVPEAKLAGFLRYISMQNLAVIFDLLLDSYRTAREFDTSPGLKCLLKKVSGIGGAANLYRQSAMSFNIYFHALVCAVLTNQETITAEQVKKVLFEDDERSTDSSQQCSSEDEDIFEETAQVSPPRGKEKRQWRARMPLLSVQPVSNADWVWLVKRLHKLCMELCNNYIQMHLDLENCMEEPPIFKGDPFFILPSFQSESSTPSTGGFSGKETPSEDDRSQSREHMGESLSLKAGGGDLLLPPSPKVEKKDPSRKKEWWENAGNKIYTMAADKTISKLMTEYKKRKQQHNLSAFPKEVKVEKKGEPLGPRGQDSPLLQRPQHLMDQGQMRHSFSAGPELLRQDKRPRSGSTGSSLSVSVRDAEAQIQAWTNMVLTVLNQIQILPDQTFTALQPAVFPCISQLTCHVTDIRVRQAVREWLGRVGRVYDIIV
Method: as §2
For immunoprecipitation, MCF-7 was seeded into 10 cm dishes (2×10^6 cells/10 mL), and like cell growth assay, MCF-7 was treated with 10 nM estrogen alone or with 10 nM estrogen and PHB2 sequence-derived peptide. For immunoprecipitation analysis, cell lysates lysed in a cell lysis buffer (50 mM Tris-HCl; pH 8.0, 150 mM NaCl, 0.1% NP-40, and 0.5% CHAPS; 0.1% protease inhibitor cocktail III) were pre-cleared with a rat IgG antibody and rec-Protein G Sepharose 4B (Thermo Fisher Scientific) at 4° C. for 3 hours. Then, the supernatants were incubated for reaction with 5 μg of an antibody against BIG3 at 4° C. for 12 hours. […]

Molecule: CSCC[C@H](NC(=O)CNC(=O)[C@H](CCCNC(=N)N)NC(=O)[C@@H]1CCCN1C(=O)CNC(=O)[C@H](C)NC(=O)[C@@H]1CCCN1C(=O)[C@H](CC(C)C)NC(=O)[C@@H](N)CCCNC(=N)N)C(=O)NCC(=O)N[C@H](C(=O)N[C@@H](C)C(=O)N[C@@H](CCCNC(=N)N)C(=O)N[C@@H](CCCNC(=N)N)C(=O)N[C@@H](CCCNC(=N)N)C(=O)N[C@@H](CCCNC(=N)N)C(=O)N[C@@H](CCCNC(=N)N)C(=O)N[C@@H](CCCNC(=N)N)C(=O)N[C@@H](CCCNC(=N)N)C(=O)N[C@@H](CCCNC(=N)N)C(=O)O)[C@@H](C)O [No. 1]
- inhibition ratio of MCF-10A growth [1]: no effect on growth
- band intensity of Ser39 phosphorylation of PHB2 compared to ERAP treatment [2]: 40%
- suppression ratio of E2-dependent growth [3]: 31%
- IC50 [4]: 462 nM
- suppression ratio of E2-dependent growth ([5]; listed as 11-22aa): 40%
- suppression ratio of E2-dependent growth ([5]; listed as PHB2 (11-22aa)): 63%
- suppression ratio of E2-dependent growth ([5]; listed as SEQ ID NO: 1): about 65%
- suppression of growth compared to PBS [6]: about 50%

Molecule: CC[C@H](C)[C@H](NC(=O)[C@H](CC(=O)O)NC(=O)[C@H](Cc1ccc(O)cc1)NC(=O)[C@@H](NC(=O)[C@@H](NC(=O)[C@@H]1CCCN1C(=O)[C@H](Cc1ccc(O)cc1)NC(=O)[C@@H](N)CCC(N)=O)[C@@H](C)CC)[C@@H](C)CC)C(=O)N[C@@H](CCCNC(=N)N)C(=O)N[C@@H](C)C(=O)N[C@@H](CCCNC(=N)N)C(=O)N1CCC[C@H]1C(=O)N[C@@H](CCCNC(=N)N)C(=O)N[C@@H](CCCCN)C(=O)N[C@H](C(=O)N[C@@H](CCCNC(=N)N)C(=O)N[C@@H](CCCNC(=N)N)C(=O)N[C@@H](CCCNC(=N)N)C(=O)N[C@@H](CCCNC(=N)N)C(=O)N[C@@H](CCCNC(=N)N)C(=O)N[C@@H](CCCNC(=N)N)C(=O)N[C@@H](CCCNC(=N)N)C(=O)N[C@@H](CCCNC(=N)N)C(=O)O)[C@@H](C)CC [No. 5]
- inhibition ratio of MCF-10A growth [1]: no effect on growth
- band intensity of Ser39 phosphorylation of PHB2 compared to ERAP treatment [2]: 20%
- suppression ratio of E2-dependent growth [3]: 24%
- IC50 [4]: 273 nM
- suppression ratio of E2-dependent growth ([5]; listed as 76-90aa): 61%
- suppression ratio of E2-dependent growth ([5]; listed as PHB2 (76-90aa)): 51%
- suppression of growth compared to PBS [6]: about 50%

B1: 11-90aa: PHB2 peptide of 11-90aa comprising the two regions of No. 1 and No. 5; 80 amino acids (peptide)
chain: RLPAGPRGMGTALKLLLGAGAVAYGVRESVFTVEGGHRAIFFNRIGGVQQDTILAEGLHFRIPWFQYPIIYDIRARPRKI
modifications: PHB2 derived peptide 11-90aa
notes: PHB2 peptide of 11-90aa comprising the two regions of No. 1 and No. 5; 80 amino acids
- inhibition of the binding between BIG3 and PHB2 [7]: did not provide a sufficient effect of inhibiting the binding
